US20240270745A1, “ISOQUINOLINE ALKALOID COMPOUND, AND PREPARATION METHOD THEREFOR AND USE THEREOF” (SHANGHAI INSTITUTE OF MATERIA MEDICA, CHINESE ACADEMY OF …, priority 2021, published 2024)

What was measured:
[1] = test system: IK current of hippocampal neurons; experiment: Delayed inward rectifier potassium current (IK) in hippocampal neurons; format: cell-based, SD rats; details: 1, 3 and 10 μM, FIG. 3
Procedure: (§1) Whole-cell patch clamp recording was performed through a digital-to-analog converter, the Digidata 1440A (Axon CNS), and a patch clamp amplifier, the Axon patch 700B (Molecular Devices), and the borosilicate glass electrode used in the manual patch clamp experiment was pulled by a Sutter-P1000 electrode puller (Sutter) with a resistance about 3 MΩ. The bath solution was continuously perfused in speed of about 2 mL/min using a BPS perfusion system.
(§2) The cell were clamped at a holding voltage of −50 mV, hyperpolarized to −110 mV, and then directly depolarized to 40 mV after 600 ms to record the whole cell potassium current (ITotal). To record the delayed […] rectifier potassium current (IK), the cells were first depolarized to −50 mV, maintained for 50 ms, and then depolarized to 40 mV. 10 μM HJ-70 was administered by perfusion to detect drug efficacy, and 5 mM TEA was administered as a positive control. […]
(§3) The data were processed through Clampfit 10.2, and imported into an Excel table for statistics, and then sorted and analyzed for their significant differences through GraphPad Prim5 software. […] All electrophysiological experiment data were expressed as mean±standard error (mean±S.E.M.).

[2] = test system: dorsal root ganglion (DRG) neurons; experiment: Evoked action potential firing in dorsal root ganglion neurons (whole-cell patch clamp); format: cell-based, C57BL/6 mouse; details: 10 μM; 200 pA, 500 ms current stimulation; FIG. 1 C and D
From the text: (§4) A 4- to 6-week old C57BL/6 mouse (Shanghai Slack Experimental Animal Co., Ltd.) was used for acute isolation of dorsal root ganglion neurons. First, the mouse was sacrificed by breaking the neck, and the surface skin was disinfected with 75% alcohol. The skin was cut from the neck to the buttocks, and the spine from the neck to the waist was cut, and placed in a pre-cooled phosphate buffer (PBS) (Hyclone Company) after excess muscles and blood clots were removed. The spine was cut longitudinally along the midline, and the white spinal cord and blood clots in the middle were removed by ophthalmic tweezers to expose the intervertebral foramen. The dorsal root ganglia were taken out by fine forceps, wherein the large ganglia at the waist should be stripped of their fibrous connections. Then the ganglia were cut into small pieces with microdissection scissors, added to 1 mL of a mixture of collagenase (1 mg/mL) and trypsin (0.25 mg/mL) (Sigma-Aldrich Company) for digestion for 15 min. Then a DMEM/F12 culture medium (Gibco Company) supplemented with 10% fetal calf serum was added thereto to terminate the digestion and dilute the resultant. The cells were pipetted repeatedly, and large tissue blocks were filtered out with a 70 μM cell filter. The remaining liquid was inoculated into a glass slide pre-coated with poly-lysine (Sigma-Aldrich), and cultured in an incubator at 5% CO2 and 37° C. […]

TRESK channel = target: T1, TRESK channel (Homo sapiens, UniProt Q7Z418); experiment: TRESK channel current, transiently expressed in CHO-K1 cells (patch clamp); format: cell-based
T1 construct: expressed in transfected cells; host or cells: CHO-K1 cells (ATCC), transient co-transfection with EGFP plasmid at 9:1
T1 sequence (Q7Z418 1-384): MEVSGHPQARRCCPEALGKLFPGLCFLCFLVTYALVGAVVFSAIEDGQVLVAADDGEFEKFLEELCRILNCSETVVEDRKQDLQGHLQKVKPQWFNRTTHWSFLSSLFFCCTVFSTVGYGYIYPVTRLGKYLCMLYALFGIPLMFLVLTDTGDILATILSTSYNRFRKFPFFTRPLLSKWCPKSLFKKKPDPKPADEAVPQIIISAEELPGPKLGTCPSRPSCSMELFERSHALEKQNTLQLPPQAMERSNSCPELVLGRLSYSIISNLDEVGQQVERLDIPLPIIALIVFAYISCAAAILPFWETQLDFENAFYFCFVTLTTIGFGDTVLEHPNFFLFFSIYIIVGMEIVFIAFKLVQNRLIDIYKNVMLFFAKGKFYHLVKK
From the text: (§5) First, TRESK plasmid (a kind gift from Professor Min LI of Johns Hopkins University) and Kv2.1 plasmid (a kind gift from Professor Min LI of Johns Hopkins University) were each co-transfected into CHO-K1 cells (ATCC) with green fluorescent protein EGFP plasmid (a kind gift from Professor Jia LI of SHANGHAI INSTITUTE OF MATERIA MEDICA, CHINESE ACADEMY OF SCIENCES) at a ratio of 9:1, and the cells with green fluorescence were selected under a fluorescence microscope to perform the experiments. The cells were clamped at −70 m V, first hyperpolarized to −130 mV, given a ramp depolarization stimulus to 20 mV, maintained for 100 ms, and then hyperpolarized to 0 mV to record the potassium channel current. 10 μM HJ-70 was administered by perfusion to test the drug efficacy thereof.

[3] = test system: IK current in DRG neurons; experiment: Delayed inward rectifier potassium current (IK) in DRG neurons; format: cell-based, C57BL/6 mouse
From the text: as §4, with “min.” for “min. Then a DMEM/F12 culture medium (Gibco Company) supplemented with 10% fetal calf serum was added thereto to terminate the digestion and dilute the resultant. The cells were pipetted repeatedly, and large tissue blocks were filtered out with a 70 μM cell filter. The remaining liquid was inoculated into a glass slide pre-coated with poly-lysine (Sigma-Aldrich), and cultured in an incubator at 5% CO2 and 37° C.”
as §3

[4] = test system: IA current in DRG neurons; experiment: Transient outward potassium current (IA) in DRG neurons; format: cell-based, C57BL/6 mouse; details: whole-cell patch clamp; IA = total minus IK; 3 μM and 10 μM in FIG. 2
From the text: as §4, with “min.” for “min. Then a DMEM/F12 culture medium (Gibco Company) supplemented with 10% fetal calf serum was added thereto to terminate the digestion and dilute the resultant. The cells were pipetted repeatedly, and large tissue blocks were filtered out with a 70 μM cell filter. The remaining liquid was inoculated into a glass slide pre-coated with poly-lysine (Sigma-Aldrich), and cultured in an incubator at 5% CO2 and 37° C.”
as §3

[5] = test system: IA current of hippocampal neurons; experiment: Transient outward potassium current (IA) in hippocampal neurons; format: cell-based, SD rats; details: 1, 3 and 10 μM, FIG. 3
Procedure: as §1
as §2, with “mV.” for “mV. 10 μM HJ-70 was administered by perfusion to detect drug efficacy, and 5 mM TEA was administered as a positive control.”
as §3

hippocampal neurons = experiment: Spontaneous firing of cultured hippocampal neurons (patch clamp); format: cell-based, SD rats; details: 10 μM, FIG. 1 A and B
Procedure: as §1
Enzyme and termination solutions with the same concentration were prepared with PBS. 90% DMEM/F12 supplemented with 10% FBS, neuron culture medium (2% B-27, 1% penicillin and streptomycin mixture, Neurobasal-A supplemented with 0.5 mM 1% GlutaMAX), and enzyme and termination solutions (all purchased from Gibco) were preheated in advance. The slides were coated in a 24-well plate in advance with 20 μg/mL polylysine. All operations were performed in a biological safety cabinet. 3 newly born SD rats that were 1-3 days old were taken out the hippocampus according to the above method. The hippocampus was cut into pieces with microdissecting scissors and digested for 8 minutes in the enzyme solution, which was slightly shaken every 2-3 minutes to make the digestion even. […] The suspension was counted on a cell counter, and adjusted to a final concentration of 10^5 cells/mL. […]

Kv2.1 channel = target: T2, Kv2.1 channel (Homo sapiens, UniProt Q14721); experiment: Kv2.1 channel current, transiently expressed in CHO-K1 cells (patch clamp); format: cell-based; details: 10 μM, FIG. 5 A and B
T2 construct: expressed in transfected cells; host or cells: CHO-K1 cells (ATCC), transient co-transfection with EGFP plasmid at 9:1
T2 sequence (Q14721 1-858): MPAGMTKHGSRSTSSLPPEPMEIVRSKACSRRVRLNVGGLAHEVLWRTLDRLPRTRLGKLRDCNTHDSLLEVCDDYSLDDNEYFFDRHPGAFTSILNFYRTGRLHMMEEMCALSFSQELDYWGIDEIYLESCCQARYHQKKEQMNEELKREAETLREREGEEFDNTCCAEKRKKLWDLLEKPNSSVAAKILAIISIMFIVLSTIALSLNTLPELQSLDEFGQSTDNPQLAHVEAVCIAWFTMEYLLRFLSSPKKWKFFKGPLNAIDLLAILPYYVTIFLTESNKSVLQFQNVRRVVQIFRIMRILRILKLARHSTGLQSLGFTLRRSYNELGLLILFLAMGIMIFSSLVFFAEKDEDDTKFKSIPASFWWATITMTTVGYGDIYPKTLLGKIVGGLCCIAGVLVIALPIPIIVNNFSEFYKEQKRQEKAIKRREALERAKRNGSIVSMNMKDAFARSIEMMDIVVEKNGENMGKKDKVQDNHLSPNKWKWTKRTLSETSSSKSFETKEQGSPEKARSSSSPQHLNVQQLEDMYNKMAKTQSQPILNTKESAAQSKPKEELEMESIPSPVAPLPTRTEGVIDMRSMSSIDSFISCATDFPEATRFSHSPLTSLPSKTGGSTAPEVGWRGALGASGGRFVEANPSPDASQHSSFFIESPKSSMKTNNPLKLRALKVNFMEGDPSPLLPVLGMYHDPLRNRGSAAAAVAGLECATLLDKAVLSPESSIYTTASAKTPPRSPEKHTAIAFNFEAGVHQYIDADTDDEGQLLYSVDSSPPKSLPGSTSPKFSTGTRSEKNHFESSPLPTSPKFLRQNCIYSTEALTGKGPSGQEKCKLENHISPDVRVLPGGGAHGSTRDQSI
From the text: as §5

[6] = test system: formaldehyde-induced inflammatory pain; experiment: Formalin-induced mouse inflammatory pain model; format: in vivo; details: mice, intraperitoneal injection 30 minutes before 1% formaldehyde; 60 minutes observation
Procedure: A 10% formaldehyde solution was diluted 10 times to prepare a 1% formaldehyde solution. 5% DMSO, 5% Tween-80 and 90% normal saline (a 0.9% NaCl solution) were used to prepare solutions of HJ-70 in 100 mg/kg and 30 mg/kg. Each mouse was administered at a dose of 0.2 mL/10 g at 30 minutes before the experiment, and then 20 μL of 1% formaldehyde solution was injected into the sole of the foot through a microsampling needle to create a formalin model. The number of licking of hind paws, flicking of hind paws, and paw lifting, and the time of paw licking and prolonged paw lifting were recorded within 60 minutes. Paw licking was scored as 3, paw flicking was scored as 2, and paw lifting was scored as 1. The pain behavior score and time were calculated to determine the analgesic activity of HJ-70.

[7] = test system: sodium current in hippocampal neurons; experiment: Sodium current in hippocampal neurons; format: cell-based, SD rats; details: 10 μM; membrane potential clamped at −90 mV
Procedure: as §1
9 mg of protease (type XXIII, Sigma) was weighed in advance, 5 mg of bovine serum albumin (BSA, Shanghai Sangon) and 5 mg of trypsin inhibitor (Sigma-Aldrich) were weighed, and 3 mg/mL and 5 mg/mL enzyme and termination solutions were respectively prepared with a dissociation solution, and incubated at 32° C. water bath. 2 SD rats that were 1-7 days old (Shanghai Slack Experimental Animal Co., Ltd.) were decapitated and cut the cortex and skull to take out the complete brain, which was divided into two parts along the midline of the brain, and the hippocampus was located in the temporal lobe of the brain. The temporal lobe cortex was removed to expose the hippocampal gyrus for dissection. Then the hippocampus tissue was slightly moistened with the dissociation solution, and cut into thin slices transversely with a razor blade. […]

TRESK (KCNK18) = target: T3, TRESK (KCNK18) (Homo sapiens, UniProt Q7Z418); details: in neurons; read-out: half-effective dose for inhibition of TRESK channels; cited from earlier work
T3 sequence (Q7Z418 1-384): T1 sequence (Q7Z418 1-384)

[8] = test system: TASK1/TASK3 (KCNK3/KCNK9); details: in neurons; read-out: half-effective dose for inhibition of TASK1/TASK3 channels; cited from earlier work

SMILES	inhibition of IK current of hippocampal neurons [1]	effect on evoked action potential firing frequency of DRG [2]	inhibition of TRESK channel current (TRESK channel; 10 μM, CHO-K1 cells, FIG. 5 C and D)	inhibitory activity on TRESK (K2P) compared with hydroxy-α-sanshool (TRESK channel; comparison with reported half-effective dose of hydroxy-α-sanshool)	reversibility of IK current inhibition after washout ([3]; DRG neurons, washout, FIG. 2 G)	inhibition of IK current in DRG neurons ([3]; whole-cell patch clamp, 3 μM and 10 μM in FIG. 2)	effect on IA current in DRG neurons [4]	effect on IA current of hippocampal neurons [5]	effect on spontaneous firing of cultured hippocampal neurons (hippocampal neurons)	inhibition of Kv2.1 channel-mediated currents (Kv2.1 channel)	pain behavioral response induced by plantar injection of formalin (licking time, pain score) [6]	effect on sodium current in hippocampal neurons [7]	IC50 (TRESK (KCNK18)) [µM]	IC50 [8] [µM]
O=c1c2ccccc2nc2n1CCc1c-2n(CCCO)c2ccccc12 [HJ-70, N-13-n-propanol rutaecarpine]	reversibly and dose-dependently inhibited	significantly inhibited	almost completely inhibited	stronger than that of hydroxy-α-sanshool	completely eluted	dose-dependently inhibited	no significant effect	without affecting	significantly inhibit	completely inhibited	dose-dependently alleviate	no effect		
C/C=C/C=C/C=C\CC/C=C/C(=O)NCC(C)(C)O [hydroxy-α-sanshool]													~50	~50
